Measured values: paper PMC12722920, “Pharmacokinetics and pharmacodynamics of cannabigerol (CBG) in the C57BL/6Crl mouse” (Frontiers in Pharmacology, 2025)

Columns and labels:
C57BL/6Crl mice [1] = test: Open field test (OFT): locomotion and anxiety-like behaviour; assay type: in vivo
Method: Catalepsy was assessed in the ring holding assay; mice were positioned with their forepaws grasping onto a 0.5 cm thick ring clamp elevated 5 cm above the testing surface. The duration of time while the ring was held was recorded in seconds, with each trial terminated if the mouse’s forepaw released from the bar, upon turning of the head or body, or after 60 s of immobility. Catalepsy was evaluated three times consecutively, and the average time spent holding the bar was reported as a percent of the maximum possible effect (% MPE, up to 60 s). Internal body temperature was measured via a rectal thermometer. Nociception was determined by assessing tail-flick latency, where mice were restrained with their tails placed ∼1 cm into 52 °C ± 2 °C water. The time (sec) until the tail was removed was measured, with observations ending at 20 s and represented as a % MPE. Locomotion and anxiety-like behaviour were assessed in the OFT. Mice were placed in an open space (90 cm × 90 cm) and recorded for 5 min. Total distance travelled (cm), velocity (cm/sec), time in the centre quadrant (sec), and central quadrant entries were measured with EthoVision XT (Noldus Information Technology Inc., Leesburg, VA).
In Phase I (Part B), after determining the timepoint at which blood CBG concentrations were highest for each respective route of administration, the timing for each measure in the tetrad was adjusted. An assessment was conducted in a new cohort consisting of both male and female mice (n = 4 per sex per route) receiving a dose of 10 mg/kg of CBG via i.v., i.p., or p.o. routes. For those administered with i.v. CBG, the timing was: catalepsy at 5 min, body temperature at 15 min, tail-flick latency at 20 min, and OFT at 25 min post-injection. For i.p. CBG, measurements were taken at 20 min for catalepsy, 25 min for body temperature, 30 min for tail-flick latency, and 35 min for OFT post-injection. For p.o. CBG, data collection was scheduled as follows: catalepsy at 170 min, body temperature at 175 min, tail-flick latency at 180 min, and OFT at 185 min post-injection.

C57BL/6Crl mice [2] = test: Cannabinoid tetrad: nociception by tail-flick latency; assay type: in vivo; details: for ED50: Mus musculus, iv
[3] = design: method as in Newmeyer et al., 2016; details: ref Newmeyer et al., 2016, cited from earlier work
male mice = tested on: male mice; design: method as in Zagzoog et al., 2020; details: i.p., 15 min post-injection; ref Zagzoog et al., 2020; cited from earlier work
C57BL/6Crl mice [4] = test: Cannabinoid tetrad: catalepsy in the ring holding assay; assay type: in vivo; details: for ED50: Mus musculus, iv
CD-1 mice = tested on: CD-1 mice; design: method as in Schwarz et al., 2024; details: 100 mg/kg i.p., not at 10 or 320 mg/kg, ref Schwarz et al., 2024, cited from earlier work
[5] = Phase II blood concentration 10 min after i.v. administration (HPLC-MS/MS)
male Sprague Dawley rats = tested on: male Sprague Dawley rats; design: method as in Jenkins et al., 2023; details: acute oral 100 mg/kg, 30 min post-administration; ref Jenkins et al., 2023; cited from earlier work
humans = tested on: humans; design: method as in Cuttler et al., 2024; details: oral 20 mg CBG; ref Cuttler et al., 2024; cited from earlier work
[6] = 1, 3, 10 or 30 mg/kg i.v., male and female mice
[7] = accounting for blood concentrations measured at 10 min, i.v.

## CCCCCc1cc(O)c(C/C=C(\C)CCC=C(C)C)c(O)c1 [CBG, cannabigerol]
C57BL/6Crl mice [1]; 10 mg/kg i.p. or p.o.
  OFT time in the center, CBG compared to THC: spent significantly more time in the center
C57BL/6Crl mice [1]; 10 mg/kg i.p., CBG 35 min post-administration
  OFT velocity: reduced velocity compared to both i.p. vehicle and THC administration
C57BL/6Crl mice [1]; 10 mg/kg i.p., compared to i.p. THC
  OFT total distance travelled: total distance travelled was reduced
C57BL/6Crl mice [1]; 10 mg/kg i.p., compared to vehicle
  OFT entries to the center: entered the center fewer times than their vehicle-treated counterparts
C57BL/6Crl mice [1]; 10 mg/kg i.v., 25 min post-administration, male and female mice
  OFT velocity: reduced velocity compared to vehicle treatment
C57BL/6Crl mice [1]; 10 mg/kg i.v., compared to i.v. vehicle
  OFT total distance travelled: total distance travelled was reduced
C57BL/6Crl mice [1]; 10 mg/kg i.v., compared to the vehicle
  OFT time in the center: Time in the center was reduced
C57BL/6Crl mice [1]; 10 mg/kg i.v., compared to vehicle
  OFT entries to the center: entered the center fewer times than their vehicle-treated counterparts
C57BL/6Crl mice [1]; 10 mg/kg p.o.
  OFT entries to the center: entered the center of the OFT more times than mice given CBG i.v.
C57BL/6Crl mice [1]; 10 mg/kg p.o., CBG 185 min post-administration
  OFT velocity: reduced velocity compared to p.o. THC
C57BL/6Crl mice [2]; 10 mg/kg i.v., 20 min post-administration, male and female mice
  anti-nociceptive response in tail-flick vs vehicle: produced an anti-nociceptive response
C57BL/6Crl mice [2]; 10 mg/kg i.v., i.p. and p.o., male mice, 20 min post-injection
  tail-flick latency: did not alter tail-flick latency
C57BL/6Crl mice [2]; [6]
  anti-nociception, dose-response: produced a modest effect but only at the highest dose tested, 30 mg/kg
C57BL/6Crl mice [2]; CBG given i.p.
  anti-nociceptive effect (tail-flick): 10% ± 0.83%
C57BL/6Crl mice [2]; 20 min, i.v., both sexes, 20 min post-administration, read-out: ED50 tail-flick latency
  ED50: > 30 mg/kg
C57BL/6Crl mice [2]; both sexes, read-out: ED50 tail-flick latency, estimate exceeding the dose range (square brackets)
  ED50: > 30 mg/kg
C57BL/6Crl mice [2]; males, read-out: ED50 tail-flick latency
  ED50: > 30 mg/kg
C57BL/6Crl mice [2]; [7]
  intoxication relative to THC, anti-nociception: 3.6%
C57BL/6Crl mice [2]; both sexes
  Intoxication ratio, tail-flick latency: 0.036
C57BL/6Crl mice [2]; females
  Intoxication ratio, tail-flick latency: 0.038
C57BL/6Crl mice [2]; i.v., females
  ED50 tail-flick latency: > 30 mg/kg
[3]; cannabis administered orally
  detection in blood after oral cannabis: not detected
[3]; frequent cannabis smokers
  time CBG was detected after smoking: up to 17 min
  time CBG was detected following vaporization: up to 13 min
Male mice
  anti-nociceptive effect: evoked an anti-nociceptive effect
C57BL/6Crl mice [4]; 10 mg/kg i.p., 20 min post-injection, male and female mice, MPE = 60 s
  catalepsy, mean % MPE: 5.4% ± 2.5%
C57BL/6Crl mice [4]; 10 mg/kg i.v., i.p. and p.o., male mice, 5 min post-injection
  cataleptic response: did not produce a cataleptic response
C57BL/6Crl mice [4]; [6]
  catalepsy, dose-response: produced a modest effect but only at the highest dose tested, 30 mg/kg
C57BL/6Crl mice [4]; 5 min, i.v., both sexes, 5 min post-administration, read-out: ED50 catalepsy
  ED50: > 30 mg/kg
C57BL/6Crl mice [4]; both sexes, three-parameter nonlinear regression, read-out: ED50 catalepsy, estimate exceeding the dose range (square brackets)
  ED50: > 30 mg/kg
C57BL/6Crl mice [4]; males, read-out: ED50 catalepsy
  ED50: > 30 mg/kg
C57BL/6Crl mice [4]; THC potency/CBG potency corrected for blood concentration at 10 min, both sexes
  Intoxication ratio, catalepsy: 0.23
C57BL/6Crl mice [4]; [7]
  intoxication relative to THC, catalepsy: 23%
C57BL/6Crl mice [4]; females
  Intoxication ratio, catalepsy: 0.28
C57BL/6Crl mice [4]; i.v., females
  ED50 catalepsy: > 30 mg/kg
C57BL/6Crl mice [4]; males
  Intoxication ratio, catalepsy: 0.17
CD-1 mice; 20 min post-injection
  anti-nociception: anti-nociception
CD-1 mice; 30 min post-injection
  hypothermia: resulted in hypothermia
[5]; 10 mg/kg i.v., higher than THC
  mean blood concentration of CBG relative to THC: approximately 5 times
[5]; both, C57BL/6Crl, mouse, whole blood, intravenous, 10 mg/kg
  concentration at 10 min: 2700 ng/mL
Male Sprague Dawley rats
  anxiolytic effects: did not produce anxiolytic effects
humans
  reduction in anxiety levels from baseline: 26.5%
